Measured values: paper PMC4079055 (The New England journal of medicine, 2014)
Where two headings read alike, the source gives them in different places.

What was measured:
[1] = Phase 1 study of oral ceritinib: safety, dose-limiting toxic events, MTD; format: in vivo
[2] = clinical; conditions: human, in vivo
[3] = tested on: ALK-rearranged NSCLC; assay: Phase 1 study: antitumor activity; format: in vivo, human
[4] = tested on: ALK; conditions: enzymatic assays; cited from earlier work
[5] = tested on: MET; conditions: cited from earlier work
[6] = tested on: ALK-rearranged NSCLC xenograft; conditions: crizotinib-sensitive and crizotinib-resistant tumors; cited from earlier work
[7] = cited from earlier work
[8] = at least 400 mg daily, 114 patients with NSCLC

Cc1cc(Nc2ncc(Cl)c(Nc3ccccc3S(=O)(=O)C(C)C)n2)c(OC(C)C)cc1C1CCNCC1 [Ceritinib]
Treatment-related deaths ([1]; all 130 patients): No treatment-related deaths occurred
Any event, grade 3 or 4, suspected to be related ([1]; human, in vivo): 64 (49) number of patients with event (percent)
Diarrhea, grade 3 or 4, suspected to be related ([1]; human, in vivo): 9 (7) number of patients with event (percent)
Dose-limiting toxic events ([1]; human, in vivo): diarrhea (at a daily dose of ≥600 mg), vomiting (at 750 mg daily), nausea (at 750 mg daily), dehydration (at 600 mg daily), elevated alanine aminotransferase level (at 400 mg daily), and hypophosphatemia (at 400 mg daily)
Elevated alanine aminotransferase level, grade 3 or 4, suspected to be related ([1]; human, in vivo): 27 (21) number of patients with event (percent)
Elevated amylase level, grade 3 or 4, suspected to be related ([1]; human, in vivo): 3 (2) number of patients with event (percent)
Elevated aspartate aminotransferase level, grade 3 or 4, suspected to be related ([1]; human, in vivo): 14 (11) number of patients with event (percent)
Elevated blood alkaline phosphatase level, grade 3 or 4, suspected to be related ([1]; human, in vivo): 3 (2) number of patients with event (percent)
Elevated lipase level, grade 3 or 4, suspected to be related ([1]; human, in vivo): 9 (7) number of patients with event (percent)
Fatigue, grade 3 or 4, suspected to be related ([1]; human, in vivo): 6 (5) number of patients with event (percent)
Hyperglycemia, grade 3 or 4, suspected to be related ([1]; human, in vivo): 3 (2) number of patients with event (percent)
Hypophosphatemia, grade 3 or 4, suspected to be related ([1]; human, in vivo): 4 (3) number of patients with event (percent)
Incidence of grade 3 or 4 nausea ([1]; human, in vivo): 5%
Median duration of treatment interruption ([1]; human, in vivo): 7.3 days
Nausea, grade 3 or 4, suspected to be related ([1]; human, in vivo): 7 (5) number of patients with event (percent)
Study drug permanently discontinued owing to an adverse event ([1]; human, in vivo): 6%
Vomiting, grade 3 or 4, suspected to be related ([1]; human, in vivo): 6 (5) number of patients with event (percent)
Cases of interstitial lung disease possibly related to therapy ([1]; in vivo): four
Dose-limiting toxic events ([1]; in vivo): diarrhea, vomiting, dehydration, elevated aminotransferase levels, and hypophosphatemia
Maximum tolerated dose (MTD) ([1]; oral, once daily, dose-escalation phase, 59 patients): 750 mg daily
Day by which steady-state levels were achieved [2]: ~15 days
Increase in Cmax in relation to dose [2]: slightly greater than proportional to the dose
half-life ([2]; 750 mg): ~40 h
Mean (±SD) area under the plasma concentration–time curve over a 24-hour period ([2]; po): 16,500±4750 ng per milliliter per hour
Mean Cmax ([2]; po): 800±205 ng per milliliter
Time at which Cmax was achieved after receipt of the dose ([2]; po, 750 mg): approximately 6 hours
Overall response rate ([3]; 750 mg daily, 78 patients with NSCLC, 95% CI 47 to 70): 59%
Tumor regression by molecular status ([3]; 19 crizotinib-resistant patients with repeat biopsy): Tumor regression was observed in all the patients
Median progression-free survival ([3]; 50 patients without central nervous system metastases, ≥400 mg daily): 7.0 months
Patients with confirmed partial response ([3]; 50 to 300 mg daily, 8 patients with NSCLC): 2 patients
Median progression-free survival ([3]; 64 patients with central nervous system metastases at baseline, ≥400 mg daily): 6.9 months
Median duration of response ([3]; 66 responders, at least 400 mg daily, 95% CI 6.9 to 11.4): 8.2 months
Patients with duration of response of 6 months or longer ([3]; 66 responders, at least 400 mg daily, 95% CI 50 to 74): 64%
Median progression-free survival ([3]; 80 patients who had previously received crizotinib, 400 to 750 mg daily, 95% CI 5.3 to 8.8): 6.9 months
Median progression-free survival ([3]; 114 patients with NSCLC, at least 400 mg daily, 95% CI 5.6 to 9.5): 7.0 months
Confirmed complete response [3, 8]: 1%
Confirmed partial response [3, 8]: 57%
Progressive disease on the first restaging scans [3, 8]: 11%
Stable disease [3, 8]: 22%
Overall response rate ([3]; at least 400 mg daily, 114 patients with NSCLC, 95% CI 48 to 67): 58%
Median overall survival ([3]; data immature, 72% censored): had not been reached
Overall response rate ([3]; no previous crizotinib, at least 400 mg daily, 34 patients, 95% CI 44 to 78): 62%
Patients with confirmed responses ([3]; of 7 crizotinib-resistant patients with ALK gene amplification or mutation): 6 patients
Patients with confirmed responses ([3]; of 12 crizotinib-resistant patients without ALK alteration): 7 patients
Reduction in tumor burden on computed tomographic scans ([3]; one patient with crizotinib-resistant disease, after 6 weeks of treatment): 52%
Responses in untreated central nervous system lesions ([3]; patients who had received crizotinib previously): responses were seen in untreated lesions in the central nervous system
Overall response rate ([3]; previously treated with crizotinib, 400 mg or more daily, 80 patients, 95% CI 45 to 67): 56%
Overall response rate ([3]; previously treated with crizotinib, 750 mg daily, 50 patients, 95% CI 41 to 70): 56%
Potency against ALK relative to crizotinib [4]: 20 times
Inhibition of the kinase activity of MET [5]: does not inhibit
Antitumor activity in xenograft models [6]: marked antitumor activity

C[C@@H](Oc1cc(-c2cnn(C3CCNCC3)c2)cnc1N)c1c(Cl)ccc(F)c1Cl [crizotinib]
Incidence of grade 3 or 4 nausea [7]: 1%
Patients with drug-related diarrhea of grade 3 or 4 ([7]; of 321 patients): 0 patients
